Measurements reported in patent publication US10168342B2, “Lipid probes and uses thereof” (THE SCRIPPS RESEARCH INSTITUTE, priority 2015, dated 2019).

How the values were obtained:
Test in all cases: isoTOP-ABPP mapping of AEA-DA-modified peptides in Neuro2a cells
Type in all cases: cell-based
[1] = molecular target: T1, AEA-DA-modified peptides in Neuro2a cells (Mus musculus, UniProt Q9DBL9); details: AEA-DA-modified peptide ABHD5 Q9DBL9 321-343, SEQ ID NO 2; probe 100 μM, 12 replicates
T1 construct: endogenous in cells; host or cells: Neuro2a
Procedure: (§1) Experiments were performed as described above using the AEA-DA probe (100 μM) in 3.0 mL of DMEM (serum-free) and Neuro2A cells without (twelve replicates; ten biological; two technical). For the ligand competition study, cells were treated with the AEA-DA probe (50 μM) and DMSO or MJN228 (50 μM) treatment. Cells were harvested and processed as described above. Whole cell lysates (500 μL at 1.5 mg/mL) were processed for MS analysis using the previously described isoTOPABPP protocol (Speers and Cravatt, 2005). In brief, for global mapping of AEA-DA-modified peptides, proteomes were split into two fractions, which were subjected to click chemistry conditions with either light or heavy isotopically labeled TEV-tags. For the […] competition study, proteomes were subjected to click chemistry conditions with either light (DMSO) or heavy (MJN228-treated) TEV-tags. Light and heavy-tagged proteomes in each experiment were then combined, and, following enrichment of probe-labeled targets using streptavidin beads, proteins were digested on-bead with trypsin and remaining immobilized peptides released with a subsequent TEV protease digestion. The resulting probe-modified peptides were collected for MS analysis, which was performed as described above with differences in the salt bumps applied in the chromatographic gradients which were 0%, 30%, 60%, 90% and 100% NH4OAc (500 mM). The protein identification searches of the MS data were performed using the same software packages described above with the following changes applied to identify the peptides modified with AEA-DA and the cleaved TEV tag. All amino acids were considered as possible residues for modification. To facilitate the computational searches, sets of up to 3 amino acids were searched using ProLuCID and filtered with DTASelect as described above. The mass of the modification used to search for probe-modified peptides was +727.4745 m/z for the probe plus the light TEV-tag and +733.4831 m/z for the heavy counterpart. […] For global mapping experiments, AEA-DA-modified peptides were expected to show a ratio of “heavy” and “light” signals of ˜1.0 (0.5<ratio<2.0) and were required to have been detected in at least two of the twelve replicate experiments.
(§2) In some embodiments, the ligands are tested for their interaction to NUCB1 in cells. […] MJN228 inhibited lipid probe binding to NUCB1 at concentrations as low as 10 μM, with near-maximal inhibition observed at ˜25 μM (FIG. 16A). […] The site of arachidonoyl probe (and MJN228) binding to NUCB1 was mapped in cells, which was accomplished by treating Neuro2A cells with the AEA-DA probe (50 μM) in the presence of DMSO or MJN228 (50 μM), followed by UV irradiation, CuAAC conjugation of AEA-DA-labeled proteins to isotopically light (DMSO-treated cells) and heavy (MJN228-treated cells) azide-biotin tags featuring a TEV protease-cleavable linker, and LCMS/MS analysis using a previously described platform, termed isoTOP-ABPP, for mapping probe-modified peptides in proteomes (Speers and Cravatt, 2005). A AEA-DA labeled peptide was identified for NUCB1 (aa 53-68) in DMSO-treated cells and the signals for this peptide were substantially (>5-fold) reduced in MJN228-treated cells (FIG. 15C). This AEA-DA labeling site was confirmed using recombinant, purified hNUCB1 and tandem MS analysis which narrowed down the site of probe modification to His67 (FIGS. 16B and 16C).

[2] = molecular target: T2, AEA-DA-modified peptides in Neuro2a cells (Mus musculus, UniProt Q6PIC6); details: AEA-DA-modified peptide ATP1A3 Q6PIC6 350-376, SEQ ID NO 18; probe 100 μM, 12 replicates
T2 construct: endogenous in cells; host or cells: Neuro2a
Procedure: as §1, §2

[3] = molecular target: T3, AEA-DA-modified peptides in Neuro2a cells (Mus musculus, UniProt P58281); details: AEA-DA-modified peptide OPA1 P58281 801-819, SEQ ID NO 74; probe 100 μM, 12 replicates
T3 construct: endogenous in cells; host or cells: Neuro2a
Procedure: as §1, §2

[4] = molecular target: T4, AEA-DA-modified peptides in Neuro2a cells (Mus musculus, UniProt P84078); details: AEA-DA-modified peptide ARF1 P84078 39-60, SEQ ID NO 10; probe 100 μM, 12 replicates
T4 construct: endogenous in cells; host or cells: Neuro2a
Procedure: as §1, §2

[5] = molecular target: T5, AEA-DA-modified peptides in Neuro2a cells (Mus musculus, UniProt P67778); details: AEA-DA-modified peptide PHB P67778 5-12, SEQ ID NO 85; probe 100 μM, 12 replicates
T5 construct: endogenous in cells; host or cells: Neuro2a
Procedure: as §1, §2

[6] = molecular target: T6, AEA-DA-modified peptides in Neuro2a cells (Mus musculus, UniProt P10649); details: AEA-DA-modified peptide GSTM1 P10649 109-123, SEQ ID NO 44; probe 100 μM, 12 replicates
T6 construct: endogenous in cells; host or cells: Neuro2a
Procedure: as §1, §2

[7] = molecular target: T7, AEA-DA-modified peptides in Neuro2a cells (Mus musculus, UniProt Q9D2R6); details: AEA-DA-modified peptide CCDC56 Q9D2R6 84-94, SEQ ID NO 22; probe 100 μM, 12 replicates
T7 construct: endogenous in cells; host or cells: Neuro2a
Procedure: as §1, §2

[8] = molecular target: T8, AEA-DA-modified peptides in Neuro2a cells (Mus musculus, UniProt O55022); details: probe 100 μM, 12 replicates
T8 construct: endogenous in cells; host or cells: Neuro2a
Procedure: as §1, §2

[9] = molecular target: T9, AEA-DA-modified peptides in Neuro2a cells (Mus musculus, UniProt P56812); details: AEA-DA-modified peptide PDCD5 P56812 69-80, SEQ ID NO 80; probe 100 μM, 12 replicates
T9 construct: endogenous in cells; host or cells: Neuro2a
Procedure: as §1, §2

[10] = molecular target: T10, AEA-DA-modified peptides in Neuro2a cells (Mus musculus, UniProt P62259); details: AEA-DA-modified peptide YWHAE P62259 197-226, SEQ ID NO 121; probe 100 μM, 12 replicates
T10 construct: endogenous in cells; host or cells: Neuro2a
Procedure: as §1, §2

[11] = molecular target: T11, AEA-DA-modified peptides in Neuro2a cells (Mus musculus, UniProt P70333); details: AEA-DA-modified peptide HNRNPH 2 P70333 50-69, SEQ ID NO 50; probe 100 μM, 12 replicates
T11 construct: endogenous in cells; host or cells: Neuro2a
Procedure: as §1, §2

[12] = molecular target: T12, AEA-DA-modified peptides in Neuro2a cells (Mus musculus, UniProt O55234); details: AEA-DA-modified peptide PSMB5 O55234 141-151, SEQ ID NO 91; probe 100 μM, 12 replicates
T12 construct: endogenous in cells; host or cells: Neuro2a
Procedure: as §1, §2

T8 sequence (O55022 whole entry): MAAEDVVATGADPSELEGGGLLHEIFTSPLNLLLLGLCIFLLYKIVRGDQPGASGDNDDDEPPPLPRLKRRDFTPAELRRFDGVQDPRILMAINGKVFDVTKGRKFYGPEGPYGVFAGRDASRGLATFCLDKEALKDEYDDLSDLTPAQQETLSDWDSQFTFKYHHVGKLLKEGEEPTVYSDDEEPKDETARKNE
T4 sequence (P84078 whole entry): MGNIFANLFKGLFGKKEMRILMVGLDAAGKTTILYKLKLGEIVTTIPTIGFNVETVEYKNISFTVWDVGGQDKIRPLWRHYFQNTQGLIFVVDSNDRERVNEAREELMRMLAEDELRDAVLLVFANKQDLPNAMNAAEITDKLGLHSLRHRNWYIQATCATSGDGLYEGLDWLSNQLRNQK
T6 sequence (P10649 whole entry): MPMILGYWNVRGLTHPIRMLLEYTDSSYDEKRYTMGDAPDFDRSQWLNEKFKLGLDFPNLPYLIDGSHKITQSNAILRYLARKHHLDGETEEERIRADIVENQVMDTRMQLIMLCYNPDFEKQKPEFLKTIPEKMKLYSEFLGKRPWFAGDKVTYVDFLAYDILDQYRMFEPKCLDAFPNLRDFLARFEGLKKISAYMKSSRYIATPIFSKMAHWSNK
T7 sequence (Q9D2R6 whole entry): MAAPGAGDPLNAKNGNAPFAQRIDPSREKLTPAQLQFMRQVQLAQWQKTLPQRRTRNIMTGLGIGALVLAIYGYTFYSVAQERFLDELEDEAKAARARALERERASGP
T3 sequence (P58281 88-960): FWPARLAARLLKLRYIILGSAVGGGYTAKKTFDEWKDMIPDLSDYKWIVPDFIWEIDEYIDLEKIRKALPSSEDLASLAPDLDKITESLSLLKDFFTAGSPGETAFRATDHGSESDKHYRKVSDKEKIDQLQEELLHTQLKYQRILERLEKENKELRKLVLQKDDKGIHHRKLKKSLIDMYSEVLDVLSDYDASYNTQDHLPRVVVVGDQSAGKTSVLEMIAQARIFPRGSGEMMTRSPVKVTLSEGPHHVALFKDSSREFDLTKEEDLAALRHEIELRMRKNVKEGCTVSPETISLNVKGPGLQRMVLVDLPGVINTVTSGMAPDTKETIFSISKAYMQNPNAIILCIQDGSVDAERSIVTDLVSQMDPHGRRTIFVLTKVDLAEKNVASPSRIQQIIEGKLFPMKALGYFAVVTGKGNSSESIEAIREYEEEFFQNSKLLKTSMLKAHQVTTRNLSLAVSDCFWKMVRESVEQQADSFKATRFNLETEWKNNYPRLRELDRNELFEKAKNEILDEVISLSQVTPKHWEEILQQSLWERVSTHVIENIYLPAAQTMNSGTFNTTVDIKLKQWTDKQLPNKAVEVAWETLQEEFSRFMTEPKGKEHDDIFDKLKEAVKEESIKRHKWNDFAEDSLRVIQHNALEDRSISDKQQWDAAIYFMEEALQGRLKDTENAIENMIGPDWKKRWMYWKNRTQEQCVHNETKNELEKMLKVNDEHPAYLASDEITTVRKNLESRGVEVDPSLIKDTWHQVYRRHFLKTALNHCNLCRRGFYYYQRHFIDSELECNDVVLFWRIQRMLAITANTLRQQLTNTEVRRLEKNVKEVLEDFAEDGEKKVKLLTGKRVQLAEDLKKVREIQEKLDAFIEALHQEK
T11 sequence (P70333 whole entry): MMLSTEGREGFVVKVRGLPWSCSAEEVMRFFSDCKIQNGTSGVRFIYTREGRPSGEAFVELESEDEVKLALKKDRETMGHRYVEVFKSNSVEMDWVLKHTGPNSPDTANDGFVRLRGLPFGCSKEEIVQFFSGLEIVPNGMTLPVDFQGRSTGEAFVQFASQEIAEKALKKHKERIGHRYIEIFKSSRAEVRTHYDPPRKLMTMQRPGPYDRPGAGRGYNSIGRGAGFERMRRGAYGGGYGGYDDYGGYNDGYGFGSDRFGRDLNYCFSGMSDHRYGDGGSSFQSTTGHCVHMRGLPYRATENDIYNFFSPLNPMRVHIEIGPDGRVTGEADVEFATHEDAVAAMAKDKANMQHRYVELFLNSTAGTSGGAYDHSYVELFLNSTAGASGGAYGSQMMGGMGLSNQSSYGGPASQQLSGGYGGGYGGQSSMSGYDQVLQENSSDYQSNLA
T10 sequence (P62259 whole entry): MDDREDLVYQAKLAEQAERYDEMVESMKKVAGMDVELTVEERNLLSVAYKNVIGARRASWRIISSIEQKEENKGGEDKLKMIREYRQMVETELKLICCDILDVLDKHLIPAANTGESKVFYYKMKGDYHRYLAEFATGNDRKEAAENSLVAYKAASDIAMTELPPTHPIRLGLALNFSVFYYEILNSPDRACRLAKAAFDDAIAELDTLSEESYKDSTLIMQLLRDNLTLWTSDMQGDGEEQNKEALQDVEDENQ
T1 sequence (Q9DBL9 whole entry): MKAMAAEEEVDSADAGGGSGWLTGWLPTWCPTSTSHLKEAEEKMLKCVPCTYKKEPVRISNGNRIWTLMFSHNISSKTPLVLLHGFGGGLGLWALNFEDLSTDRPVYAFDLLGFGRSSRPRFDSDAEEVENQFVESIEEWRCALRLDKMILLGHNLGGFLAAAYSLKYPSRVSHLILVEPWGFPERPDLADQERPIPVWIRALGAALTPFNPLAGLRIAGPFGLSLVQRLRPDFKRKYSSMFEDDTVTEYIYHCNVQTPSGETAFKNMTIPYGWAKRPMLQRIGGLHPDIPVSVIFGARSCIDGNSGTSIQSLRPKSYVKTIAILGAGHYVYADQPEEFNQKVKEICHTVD
T5 sequence (P67778 whole entry): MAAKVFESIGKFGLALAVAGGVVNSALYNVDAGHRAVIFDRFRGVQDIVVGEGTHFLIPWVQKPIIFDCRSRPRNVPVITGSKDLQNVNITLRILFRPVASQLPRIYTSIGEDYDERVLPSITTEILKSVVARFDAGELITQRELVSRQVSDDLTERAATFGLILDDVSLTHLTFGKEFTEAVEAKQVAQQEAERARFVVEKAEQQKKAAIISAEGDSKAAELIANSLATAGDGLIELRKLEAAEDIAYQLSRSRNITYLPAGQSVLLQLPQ
T12 sequence (O55234 60-264): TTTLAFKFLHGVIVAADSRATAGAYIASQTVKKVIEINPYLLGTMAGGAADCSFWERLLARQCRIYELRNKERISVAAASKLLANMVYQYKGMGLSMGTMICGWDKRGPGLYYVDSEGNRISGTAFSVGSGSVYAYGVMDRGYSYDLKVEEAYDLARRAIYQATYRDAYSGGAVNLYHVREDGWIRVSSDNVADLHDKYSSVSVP
T9 sequence (P56812 whole entry): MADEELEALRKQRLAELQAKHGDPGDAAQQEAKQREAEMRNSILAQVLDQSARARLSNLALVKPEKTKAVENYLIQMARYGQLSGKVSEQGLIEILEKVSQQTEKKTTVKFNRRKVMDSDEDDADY

C#CCCCC1(CC/C=C\C/C=C\C/C=C\CCCC(=O)NCCO)N=N1 [AEA-DA, (5Z,8Z,11Z)-N-(2-hydroxyethyl)-14-(3-(pent-4-yn-1-yl)-3H-diazirin-3-yl)tetradeca-5,8,11-trienamide]
Times observed [1]: 6 | Times observed [2]: 2 | Times observed [3]: 2 | Times observed [4]: 9 | Times observed [5]: 2 | Times observed [6]: 4 | Times observed [7]: 2 | Times observed ([8]; AEA-DA-modified peptide PGRMC1 O55022 48-68, SEQ ID NO 82): 2 | Times observed ([8]; AEA-DA-modified peptide PGRMC1 O55022 106-120, SEQ ID NO 81): 12 | Times observed [9]: 5 | Times observed [10]: 8 | Times observed [11]: 9 | Times observed [12]: 11
